Laboratory results published in article PMC11121495, “Blap-6, a Novel Antifungal Peptide from the Chinese Medicinal Beetle Blaps rhynchopetera against Cryptococcus neoformans” (International Journal of Molecular Sciences, 2024).
Where no end group is shown, it is not given here.

Legend:
[1] = test system: C. neoformans ATCC 32045; experiment: Reactive oxygen species detection, H2DCFDA; format: cell-based, Cryptococcus neoformans; conditions: 1 × MIC, 8 × MIC, 32 × MIC, 30 min, 35 °C; H2DCFDA 10 μM, 488/525 nm
Method: 2′,7′-Dichlorofluorescin diacetate (H2DCFDA) is a cell-permeable probe for detecting intracellular ROS [77]. […] The different concentrations of blap-6 (1 × MIC, 8 × MIC, and 32 × MIC) were incubated with the diluted fungal solution at 35 °C for 30 min, and 0.1 mM H2O2 was used as a positive control. The negative control group was treated with normal saline and incubated at 37 °C for 30 min. Centrifuged at 8000 rpm and 4 °C for 5 min, discard the supernatant, leaving the cell precipitate. The H2DCFDA dye (Boer, Shanghai, China) was dissolved in DMSO and diluted with normal saline containing 1% DMSO to a final concentration of 10 μM. And added 1 mL of H2DCFDA (10 μM) working solution to each tube and incubated at 35 °C for 30 min. And then precipitated the pellets, discarded the supernatant, and paid attention not to suck out the fungi. […] The excitation/wavelength emission was set at 488/525 nm, and three replicates were set in the experiment.

[2] = test system: C. neoformans ATCC 32045; experiment: Fungal-killing kinetics; format: cell-based, Cryptococcus neoformans; conditions: 10 × MIC; 1 × 10^6 CFU/mL, SDB, 37 °C, colony count
Method: The single colony of C. neoformans ATCC 32045 was selected and cultured at 180 rpm and 37 °C, washed three times with normal saline, and then resuspended, and the fungal solution was diluted to 1 × 10^6 CFU/mL with SDB medium. The positive control was fluconazole, and the negative control was normal saline. […] The fungal liquid after adding the sample was quickly put into the 37 °C constant temperature incubator, and the shaking culture was carried out at 180 rpm. […] The plate was placed in a constant temperature incubator for inverted culture for 72 h at 37 °C, and then the single colony on the plate was counted.

[3] = in vitro; format: in vitro ADME
Method: (§1) For investigating the impact of protease on blap-6, trypsin and chymotrypsin were chosen as the enzymes to be studied in the experiment. […] Then these samples (including blap-6 as a standard) were detected by high-performance liquid chromatography (HPLC, Waters, Milford, MA, USA) on a C18 column (4.6 mm × 250 mm, Waters, USA). Solvent A was ultrapure water, and solvent B was acetonitrile. The flow rate was 0.5 mL/min, and the detection wavelength was 280 nm. The column was balanced with 95% solvent A in 0-3 min and eluted with 95-40% solvent A in 3-10 min, 40-5% solvent A in 10-15 min, and 5-95% solvent A in 15-20 min. The degradation rate was calculated by the peak area of the HPLC.

[4] = test system: trypsin; experiment: in vitro; format: in vitro ADME
Method: as §1

[5] = test system: C. neoformans ATCC 32045 pre-formed biofilm; experiment: Biofilm eradication (crystal violet); format: cell-based, Cryptococcus neoformans; conditions: 1 × MIC, 48 h pre-formed biofilm, 48 h treatment, A600
Method: The single colony of C. neoformans ATCC 32045 was picked and cultured at 180 rpm and 37 °C. After washing with normal saline three times and being resuspended, the concentration of the fungal solution was adjusted to 1 × 10^6 CFU/mL and then added to a 96-well plate. Each well was incubated at 37 °C for 48 h. The fungal solution was discarded and washed three times with PBS for 1 min each time. The sample to be tested was diluted with normal saline to 0.5×, 1×, 2×, 4× and 8 × MIC, and 200 μL was added to the 96-well plate, respectively. Each concentration was set to three replicate wells, and the negative control group was added with the same volume of sterile normal saline. In the positive control group, 10 μM fluconazole and 10 μM amphotericin B were added and incubated at 37 °C for 48 h. After that, the supernatant was discarded and washed three times with sterile PBS for 1 min each time. And then, 99% methanol was added and fixed for 5 min. Methanol was removed and dried under the ultra-clean bench. After staining with 100 μL 0.1% crystal violet for 5 min, wash the plate with PBS, dry, and add 100 μL 95% ethanol. The absorbance at 600 nm was detected by a microplate reader.

[6] = test system: S. aureus; experiment: microbe, parasite or virus in culture; format: cell-based, Staphylococcus aureus (ATCC 6538)
From the text: (§2) These standard strains of Escherichia coli (E. coli, ATCC 8739), Staphylococcus aureus (S. aureus, ATCC 6538), Pseudomonas aeruginosa (P. aeruginosa, ATCC 27853), Acinetobacter baumannii (A. baumannii, ATCC 1968), Candida albicans (ATCC 10231), and the clinical strain of Methicillin-resistant Staphylococcus aureus (MRSA, MRSA-Z) were obtained from Kunming Medical University. The standard strain of C. neoformans (ATCC 32045) was purchased from Shanghai Yingxin Laboratory Co., Ltd. (CAS NO. YXJ50058). Different strains of E. coli, S. aureus, MRSA, P. aeruginosa, and A. baumannii were cultured with shaking at 37 °C in Luria–Bertani (LB) medium. C. neoformans was cultured at 35 °C in Sabouraud Dextrose Agar (SDA) medium according to the manufacturer’s instructions.
(§3) According to Clinical and Laboratory Standards Institute (CLSI) protocols, the minimum inhibitory concentration (MIC) is the minimum drug concentration at which antibiotics inhibit the growth and reproduction of strains. The different strains were grown in their corresponding media at 35 °C or 37 °C until they entered the exponential growth phase. Fluconazole and amphotericin B were used as positive controls, and sterile 0.9% NaCl was used as a negative control. The peptides were diluted to various concentrations in sterile saline. According to 1 OD = 1 × 10^9 CFU/mL, the above bacterial solution was diluted to 2 × 10^5 CFU/mL with the corresponding medium. In advance, 100 μL of normal saline was added to a sterile 96-well plate, and 200 μL of the sample to be tested was added to the first well. The sample to be tested was subjected to double gradient dilution, and then 100 μL of bacterial solution with a concentration of 2 × 10^5 was added to each well. It was cultured at 35 °C or 37 °C for different times. The light absorption value of the bacterial solution at 600 nm was detected by a microplate reader (Epoch Etock, Biotek, Winooski, VT, USA), and the average concentration of the samples in the pores and adjacent pores that could not detect microbial growth was used as the MIC value.

[7] = test system: MRSA; experiment: microbe, parasite or virus in culture; format: cell-based
From the text: as §2, §3

[8] = test system: E. coli; experiment: microbe, parasite or virus in culture; format: cell-based, Escherichia coli (ATCC 8739)
From the text: as §2, §3

## KRCRFRIYRWGFPRRRF [blap-6]
[1]
  production of reactive oxygen species (ROS): concentration-dependent increase
[2]
  time within which all the fungi were killed: ≤ 30 min
[3]; isolated enzyme chymotrypsin
  half-life at 2.44 mg/mL: ~5 h
  metabolised at 1 h, 2.44 mg/mL: 19%
[3]; isolated enzyme several chymotrypsin trypsin
  metabolised at 24 h, 2.44 mg/mL: 90%
[3]; isolated enzyme trypsin
  half-life at 2.44 mg/mL: ~6 h
[4]
  degradation with trypsin: began to degrade
[5]
  eradication of pre-formed biofilm: ability to remove pre-formed C. neoformans biofilm
[6]
  MIC: 9.77 µM
[7]
  MIC: 4.89 µM
[8]
  MIC: 9.77 µM
